Test results reported in patent US20260070902A1, “SULFONYL DERIVATIVES AS CCR6 INHIBITORS” (Hoffmann-La Roche Inc., priority 2022, published 2026).

Key:
Type in all cases: cell-based
Human CD4+ T cells = experiment: CD4+ T cells chemotaxis assay towards CCL20; conditions: 3 h; for CD4+ T-cell chemotaxis: relative -Log IC50, human CD4+ T cells stimulated with anti-CD3 and anti-CD28, migration towards 150 ng/ml CCL20; for IC50: Homo sapiens, CD4+ T cell, relative -Log IC50, human CD4+ T cells stimulated with anti-CD3 and anti-CD28, migration towards 150 ng/ml CCL20
Text: CD4+ T Cells Chemotaxis Assay Towards CCL20
Human CD4+ T cells were isolated from buffy coats of healthy donors using a CD4+ T Cell Isolation Kit (Miltenyi Biotec130-096-533). Isolated T cells were stimulated overnight with anti-CD3 and anti-CD28 antibodies (Biolegend 300314/302934) in growth medium (RPMI1640, 10% heat-inactivated FBS, 1× pen/strep (Gibco 15140)). For the chemotaxis assay, Corning Transwell plates were used with a pore size of 5 m (Corning 3388). T cells were counted and diluted to 6*10^6 cells/ml in chemotaxis medium (RPMI1640, 1% BSA, pen/strep). Compounds were four-fold serially diluted in DMSO. Further dilutions were made in chemotaxis medium. Cells were incubated with test compounds for 30 min at 37° C. prior to initiation of the assay (3*10^6 cells/ml). Final DMSO concentration in the assay was 0.2%. Wells of the Transwell plates were filled with 200 μl chemotaxis medium containing 150 ng/ml CCL20 (R&D systems 360-MP). 50 μl of the cell/compound suspension was added to the inserts of the Transwell plates (150,000 cells/insert). The Transwell plates were placed in an incubator at 37° C., 5% CO2 for 3 h. After 3 h, the number of migrated cells was quantified using CellTiter Glo (Promega). Percentage inhibition values were calculated based on the low and high signal obtained with 0.2% DMSO in chemotaxis medium without and with CCL20, respectively. The relative −Log IC50 was determined with GraphPad Prism 9 using a four-parameter dose-response model.

human CCR6 [1] = target: T1, human CCR6 (Homo sapiens, UniProt P51684); experiment: Human CCR6-CRE reporter assay; design: The second construct contained the open reading frame of human CCR6 in the pUNO1 backbone; host or cells: 293FT cells; conditions: relative -Log IC50; 293FT cells transfected with human CCR6 and CRE-luciferase reporter; 6 μM Forskolin, 6 nM CCL20; 5 h
T1 sequence (P51684 1-374): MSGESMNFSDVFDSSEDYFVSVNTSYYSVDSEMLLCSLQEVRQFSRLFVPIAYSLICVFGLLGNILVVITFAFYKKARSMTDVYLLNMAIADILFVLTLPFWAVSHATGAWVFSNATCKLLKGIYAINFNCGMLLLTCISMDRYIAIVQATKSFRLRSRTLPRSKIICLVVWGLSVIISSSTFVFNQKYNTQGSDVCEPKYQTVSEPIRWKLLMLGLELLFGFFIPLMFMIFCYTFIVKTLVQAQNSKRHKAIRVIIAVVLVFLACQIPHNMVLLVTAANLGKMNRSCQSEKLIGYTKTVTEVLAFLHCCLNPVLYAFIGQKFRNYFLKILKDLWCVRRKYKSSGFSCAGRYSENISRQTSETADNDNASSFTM
Summary of the method: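 293FT cells transiently co-transfected with human CCR6 and a CRE-luc2P reporter, used 48 h later. Compounds incubated with cells in medium containing 6 μM Forskolin and 6 nM CCL20 (assay-medium levels), 0.1% DMSO final, 5 h at 37° C; luminescence read, relative −Log IC50 from four-parameter fit.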

human CCR6 [2] = target: T1, human CCR6; experiment: CHO-K1 CCR6 chemotaxis assay towards CCL20; conditions: relative -Log IC50; CHO-K1 cells overexpressing human CCR6; migration towards 100 ng/ml CCL20; 4 h
Summary of the method: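 Human CCR6-overexpressing CHO-K1 cells (2*10^6 cells/ml) were preincubated 30 min at 37 °C with compound (0.2% DMSO), then allowed to migrate 4 h through 8 µm Transwell pores toward 100 ng/ml CCL20. Migrated cells were counted by CellTiter Glo. −Log IC50 came from four-parameter fits normalised to DMSO without/with CCL20.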

Row | IC50 (human CCR6 [1]) | IC50 (Human CD4+ T cells) | IC50 (human CCR6 [2]) | Compound | CD4+ T-cell chemotaxis (Human CD4+ T cells)
1 | 200 nM | – | – | N=S(=O)(c1ccc(-c2ccnc(C(N)=O)c2)cc1)[C@H]1CC[C@H](Nc2ccc(S(F)(F)(F)(F)F)cc2)CC1 (single isomer, unassigned; (+)) [Example 130, (+)-4-(4-{[trans-4-{[4-(pentafluoro-λ^6-sulfanyl)phenyl]Amino}cyclohexyl]sulfonimidoyl}phenyl)pyridine-2-carboxamide] | 7.3
2 | 79.4 nM | – | – | CC(C)c1nnc2ccc(-c3ccc(S(=N)(=O)[C@H]4CC[C@H](Nc5ccc(S(F)(F)(F)(F)F)cc5)CC4)cc3)cn12 (single isomer, unassigned; (+)) [Example 163, (+)-{4-[3-(propan-2-yl)-[1,2,4]triazolo[4,3-a]pyridin-6-yl]phenyl}[trans-4-{[4-(pentafluoro-λ^6-sulfanyl)phenyl]amino}cyclohexyl](imino)-λ^6-sulfanone] | 7.8
3 | 316 nM | – | – | N=S(=O)(c1ccc(-c2ccnc(C(N)=O)c2)cc1)[C@H]1CC[C@H](Nc2ccc(S(F)(F)(F)(F)F)cc2)CC1 (single isomer, unassigned; (-)) [Example 131, (−)-4-(4-{[trans-4-{[4-(pentafluoro-λ^6-sulfanyl)phenyl]Amino}cyclohexyl]sulfonimidoyl}phenyl)pyridine-2-carboxamide] | 6.6
4 | 126 nM | – | – | CC(C)c1nnc2ccc(-c3ccc(S(=N)(=O)[C@H]4CC[C@H](Nc5ccc(S(F)(F)(F)(F)F)cc5)CC4)cc3)cn12 (single isomer, unassigned; (-)) [Example 164, (−)-{4-[3-(propan-2-yl)-[1,2,4]triazolo[4,3-a]pyridin-6-yl]phenyl}[trans-4-{[4-(pentafluoro-λ^6-sulfanyl)phenyl]amino}cyclohexyl](imino)-λ^6-sulfanone] | 6.7
5 | 63.1 nM | 5.01 nM | – | Cc1[nH]nc2ccc(-c3ccc(S(=O)(=O)N4CCC(Nc5ccc(S(F)(F)(F)(F)F)cc5)CC4)cc3)cc12 [Example 2, 1-[4-(3-methyl-2H-indazol-5-yl)benzenesulfonyl]-N-[4-(pentafluoro-λ^6-sulfanyl)phenyl]piperidin-4-amine] | –
6 | 50.1 nM | 15.8 nM | – | N#Cc1c[nH]c2ccc(-c3ccc(S(=O)(=O)N4CCC(Nc5ccc(S(F)(F)(F)(F)F)cc5)CC4)cc3)cc12 [Example 3, 5-{4-[(4-{[4-(pentafluoro-λ^6-sulfanyl)phenyl]Amino}piperidin-1-yl)sulfonyl]phenyl}-1H-indole-3-carbonitrile] | –
7 | 50.1 nM | 0.794 nM | – | N#Cc1n[nH]c2ccc(-c3ccc(S(=O)(=O)N4CCC(Nc5ccc(S(F)(F)(F)(F)F)cc5)CC4)cc3)cc12 [Example 4, 5-{4-[(4-{[4-(pentafluoro-λ^6-sulfanyl)phenyl]Amino}piperidin-1-yl)sulfonyl]phenyl}-1H-indazole-3-carbonitrile] | –
8 | 39.8 nM | 0.501 nM | – | N#Cc1c[nH]c2ccc(-c3ccc(S(=O)(=O)[C@H]4CC[C@H](Nc5ccc(S(F)(F)(F)(F)F)cc5)CC4)cc3)cc12 [Example 7, 5-(4-{[trans-4-{[4-(pentafluoro-λ^6-sulfanyl)phenyl]Amino}cyclohexyl]sulfonyl}phenyl)-1H-indole-3-carbonitrile] | –
9 | 251 nM | – | 25.1 nM | Cc1n[nH]c2cnc(-c3ccc(S(=O)(=O)[C@H]4CC[C@H](Nc5ccc(S(F)(F)(F)(F)F)cc5)CC4)cc3)cc12 [Example 142, 4-(pentafluoro-λ^6-sulfanyl)-N-[trans-4-(4-{3-methyl-1H-pyrazolo[3,4-c]pyridin-5-yl}benzenesulfonyl)cyclohexyl]aniline] | –
10 | 200 nM | – | 39.8 nM | O=S(=O)(c1ccc(-c2cc3cn[nH]c3cn2)cc1)[C@H]1CC[C@H](Nc2ccc(S(F)(F)(F)(F)F)cc2)CC1 [Example 147, 4-(pentafluoro-λ^6-sulfanyl)-N-[trans-4-(4-{1H-pyrazolo[3,4-c]pyridin-5-yl}benzenesulfonyl)cyclohexyl]aniline] | –
11 | 100 nM | – | 10 nM | O=S(=O)(c1ccc(-c2cc(F)c3nccn3c2)cc1)[C@H]1CC[C@H](Nc2ccc(S(F)(F)(F)(F)F)cc2)CC1 [Example 152, 4-(pentafluoro-λ^6-sulfanyl)-N-[trans-4-(4-{8-fluoroimidazo[1,2-a]pyridin-6-yl}benzenesulfonyl)cyclohexyl]aniline] | –
12 | 158 nM | – | 15.8 nM | O=C1NCCc2sc(-c3ccc(S(=O)(=O)[C@H]4CC[C@H](Nc5ccc(S(F)(F)(F)(F)F)cc5)CC4)cc3)cc21 [Example 153, 2-(4-{[trans-4-{[4-(pentafluoro-λ^6-sulfanyl)phenyl]amino}cyclohexyl]sulfonyl}phenyl)-4H,5H,6H,7H-thieno[3,2-c]pyridin-4-one] | –
13 | 158 nM | – | 31.6 nM | O=C1NCCCn2cc(-c3ccc(S(=O)(=O)[C@H]4CC[C@H](Nc5ccc(S(F)(F)(F)(F)F)cc5)CC4)cc3)cc21 [Example 155, 8-(4-{[trans-4-{[4-(pentafluoro-λ^6-sulfanyl)phenyl]amino}cyclohexyl]sulfonyl}phenyl)-1H,2H,3H,4H,5H-pyrrolo[1,2-a][1,4]diazepin-1-one] | –
14 | 158 nM | – | 39.8 nM | O=C1NCCn2cc(-c3ccc(S(=O)(=O)[C@H]4CC[C@H](Nc5ccc(S(F)(F)(F)(F)F)cc5)CC4)cc3)cc21 [Example 156, 7-(4-{[trans-4-{[4-(pentafluoro-λ^6-sulfanyl)phenyl]amino}cyclohexyl]sulfonyl}phenyl)-1H,2H,3H,4H-pyrrolo[1,2-a]pyrazin-1-one] | –
15 | 79.4 nM | – | 2.51 nM | NC(=O)c1cc(-c2ccc(S(=O)(=O)[C@H]3CC[C@H](Nc4ccc(S(F)(F)(F)(F)F)cc4)CC3)cc2)cn2ccnc12 [Example 157, 6-(4-{[trans-4-{[4-(pentafluoro-λ^6-sulfanyl)phenyl]amino}cyclohexyl]sulfonyl}phenyl)imidazo[1,2-a]pyridine-8-carboxamide] | –
16 | 100 nM | – | 10 nM | NC(=O)c1cc(-c2ccc(S(=O)(=O)[C@H]3CC[C@H](Nc4ccc(S(F)(F)(F)(F)F)cc4)CC3)cc2)co1 [Example 158, 4-(4-{[trans-4-{[4-(pentafluoro-λ^6-sulfanyl)phenyl]amino}cyclohexyl]sulfonyl}phenyl)furan-2-carboxamide] | –
17 | 63.1 nM | – | 12.6 nM | Nc1cc(-c2ccc(S(=O)(=O)[C@H]3CC[C@H](Nc4ccc(S(F)(F)(F)(F)F)cc4)CC3)cc2)cn2ccnc12 [Example 159, 6-(4-{[trans-4-{[4-(pentafluoro-λ^6-sulfanyl)phenyl]amino}cyclohexyl]sulfonyl}phenyl)imidazo[1,2-a]pyridin-8-amine] | –
18 | 251 nM | – | 251 nM | O=S(=O)(c1ccc(-c2ccc3nnc(C4CNC4)n3c2)cc1)N1CCC(Nc2ccc(S(F)(F)(F)(F)F)cc2)CC1 [Example 167, 1-{4-[3-(azetidin-3-yl)-[1,2,4]triazolo[4,3-a]pyridin-6-yl]benzenesulfonyl}-N-[4-(pentafluoro-λ^6-sulfanyl)phenyl]piperidin-4-amine] | –
19 | 316 nM | – | 79.4 nM | N=S(=O)(c1ccc(-c2ccc3nnc(C(F)F)n3c2)cc1)[C@H]1CC[C@H](Nc2ccc(S(F)(F)(F)(F)F)cc2)CC1 (stereo partly drawn) [Example 169, {4-[3-(difluoromethyl)-[1,2,4]triazolo[4,3-a]pyridin-6-yl]phenyl}[trans-4-{[4-(pentafluoro-λ^6-sulfanyl)phenyl]amino}cyclohexyl](imino)-λ^6-sulfanone] | –
